Measurements: patent US20100010078A1, “METHODS OF TREATING ANDROGEN DEPENDENT PROSTATE CANCER BY ADMINISTERING AN ACTIVE PHARMACEUTICAL INGREDIENT BEING FISETIN, 3,3',4',7-TETRAHYDROXYFLAVONE OR A DERIVATIVE THEREOF, IN AN ORAL, TRANSDERMAL OR TOPICAL DOSAGE FORM” (priority 2008, published 2010)
Where two headings read alike, the source gives them in different places.

Columns and labels:
caspase-3, -8 and -9 = experiment: Western blot, active caspase-3, -8 and -9 in LNCaP cells; format: cell-based, human; details: fisetin 10-60 μM, 48 h
Method: (§1) Protein extraction and western blotting. Following the treatment of LNCaP cells with fisetin (10-60 μM; 48 h), the media was aspirated, the cells were washed with cold PBS (pH 7.4), and ice-cold lysis buffer (50 mM Tris-HCl, 150 mM NaCl, 1 mM EGTA, 1 mM EDTA, 20 mM NaF, 100 mM Na3VO4, 0.5% NP-40, 1% Triton X-100, 1 mM PMSF (pH 7.4)) with freshly added protease inhibitor cocktail (Protease Inhibitor Cocktail Set III, Calbiochem, La Jolla, Calif.) over ice for 30 min. The cells were scraped and the lysate was collected in a microfuge tube and passed through a needle to break up the cell aggregates. […]
(§2) For western blotting, 30-50 μg protein was resolved over 8-12% polyacrylamide gels and transferred to a nitrocellulose membrane. The blot was blocked in blocking buffer (5% nonfat dry milk/1% Tween 20; in 20 mM TBS, pH 7.6) for 1 hr at room temperature, incubated with appropriate monoclonal or polyclonal primary antibody in blocking buffer for 1.5 h to overnight at 4° C., followed by incubation with anti-mouse or anti-rabbit secondary antibody horseradish peroxidase conjugate obtained from Amersham Life Science Inc. and detected by chemiluminescence and autoradiography using XAR-5 film obtained from Eastman Kodak Co. (Rochester, N.Y., USA). […]

[1] = test system: PI3K (p85), Akt (Ser473 and Thr308); experiment: Western blot, PI3K (p85) and phosphorylation of Akt in LNCaP cells; format: cell-based, human; details: fisetin 10-60 μM, 48 h
Method: as §1, §2

LNCaP cells [2] = experiment: Apoptosis assessment by annexin-V staining; format: cell-based, human; details: fisetin 10-60 μM, 48 h
Method: Apoptosis assessment by annexin-V staining. The Annexin-V-Fluos staining kit was used for the detection of apoptotic cells according to vendor's protocol. This kit uses a staining protocol in which the apoptotic cells are stained with annexin-V (green fluorescence). The LNCaP cells were grown to 70% confluency and treated with fisetin (10-60 μM) for 48 h. The fluorescence was measured by a Zeiss 410 confocal microscope (Thornwood, N.Y.). Confocal images of green annexin-FITC fluorescence were collected using 488 nm excitation light from an argon/krypton laser, a 560 nm dichroic mirror and a 514-540 nm bandpass barrier filter.

[3] = test system: Bad, Bax, Bcl2 and Bcl-xL; experiment: Silencing of Akt by siRNA, Bcl2-family proteins in LNCaP cells; format: cell-based, human; details: LNCaP transfected with Akt-siRNA, fisetin 40 μM, 48 h
Method: Silencing of Akt by Small Interfering RNA. LNCaP cells were transfected with Akt-siRNA (75 nmol) and scrambled siRNA (75 nmol) procured from Dharmacon (Lafayette, Colo.) using the Nucleofection Kit R specific for LNCaP transfection from Amaxa Biosystems (Gaithersburg, Md.). Cells were resuspended in a solution from nucleofector kit R following the manufacturer's guidelines. 100 μl of nucleofector solution R was mixed with 2×10^6 cells and siRNA. They were then transferred to the cuvette provided with the kit and were nucleofected with an Amaxa Nucleofector apparatus. Cells were transfected using the T-001 pulsing parameter and were transferred into 100-mm plates containing 37° C. prewarmed culture medium. After transfection, cells were cultured and the medium was replaced with fresh medium. Cells were treated with 40 μM fisetin for 48 h, and protein lysates were prepared. Using 2 μg of GFP we observed 70-80% transfection efficiency with this protocol.

PrEC cells = experiment: MTT cell viability assay, normal prostate epithelial (PrEC) cells; format: cell-based, human; details: fisetin 10-60 μM
Method: (§3) obtained from ATCC (Manassas, Va.). LNCaP cells were cultured in Dulbecco's Modified Eagle's medium supplemented with 5% heat-inactivated fetal bovine serum and 1% penicillin/streptomycin (P-S). CWR22Ru1 and PC-3 cells were grown in RPMI 1640 (Invitrogen) supplemented with 10% fetal bovine serum and 1% P-S. Human prostate epithelial cells (PrEC) were obtained from Cambrex Bioscience (Walkersville, Md.) and grown in prostate epithelial basal cell medium (Cambrex Bioscience) according to the manufacturer's instructions. The cells were maintained under standard cell culture conditions at 37° C. and 5% CO2 in a humid environment. Fisetin dissolved in dimethyl sulfoxide (final concentration 0.1% v/v) was used for the treatment of cells. The cells (60-70% confluent) were treated with fisetin (10-60 μM) for 24 and 48 h in complete growth medium.
Cell viability. The effect of fisetin on the viability of cells was determined by 3-[4,5-dimethylthiazol-2-yl]-2,5-diphenyl tetrazoliumbromide assay. […] The absorbance was recorded on a microplate reader at the wavelength of 540 nm. The effect of fisetin on growth inhibition was assessed as percent cell viability where DMSO-treated cells were taken as 100% viable. […]

CWR22Ru1 cells = experiment: MTT cell viability assay, CWR22Ru1 cells; format: cell-based; details: Homo sapiens, read-out: decrease in cell viability; for cytotoxicity at 10 µM: CWR22Ru1, fisetin 10 μM; for cytotoxicity at 20 µM: CWR22Ru1, fisetin 20 μM; for cytotoxicity at 40 µM: CWR22Ru1, fisetin 40 μM; for cytotoxicity at 60 µM: CWR22Ru1, fisetin 60 μM
Method: as §3
(§4) Cell viability. The effect of fisetin on the viability of cells was determined by 3-[4,5-dimethylthiazol-2-yl]-2,5-diphenyl tetrazoliumbromide assay. LNCaP, CWR22Ru1, PC-3 and PrEC cells were plated at 1×10^4 cells per well in 200 μl of complete culture medium containing 10-60 μM concentrations of fisetin in 96-well microtiter plates for 24 and 48 h. After incubation for specified times at 37° C. in a humidified incubator, 3-[4,5-dimethylthiazol-2-yl]-2,5-diphenyl tetrazoliumbromide (5 mg/ml in PBS) was added to each well and incubated for 2 h, after which the plate was centrifuged at 1,800×g for 5 min at 4° C. The absorbance was recorded on a microplate reader at the wavelength of 540 nm. The effect of fisetin on growth inhibition was assessed as percent cell viability where DMSO-treated cells were taken as 100% viable. DMSO at the concentrations used was without any effect on cell viability.

PC-3 cells = experiment: MTT cell viability assay, PC-3 cells; format: cell-based; details: Homo sapiens, read-out: decrease in cell viability; for cytotoxicity at 10 µM: PC-3, fisetin 10 μM; for cytotoxicity at 20 µM: PC-3, fisetin 20 μM; for cytotoxicity at 40 µM: PC-3, fisetin 40 μM; for cytotoxicity at 60 µM: PC-3, fisetin 60 μM
Method: as §3, §4

cdk2, cdk4 and cdk6 = experiment: Western blot, cdks in LNCaP cells; format: cell-based, human; details: fisetin 10-60 μM, 48 h
Method: as §1, §2

LNCaP cells [4] = experiment: MTT cell viability assay, LNCaP cells; format: cell-based; details: Homo sapiens, read-out: decrease in cell viability; for cytotoxicity at 10 µM: fisetin 10 μM; for cytotoxicity at 20 µM: fisetin 20 μM; for cytotoxicity at 40 µM: fisetin 40 μM; for cytotoxicity at 60 µM: fisetin 60 μM
Method: as §3, §4

Which results are given for `O=c1c(O)c(-c2ccc(O)c(O)c2)oc2cc(O)ccc12` [fisetin, 3,3′,4′,7-tetrahydroxyflavone]?
activation of caspase-3, -8 and -9 (caspase-3, -8 and -9): dose-dependent increase; expression of regulatory (p85) subunit of PI3K [1]: inhibition; phosphorylation of Akt at Ser473 and Thr308 [1]: inhibited; apoptotic cells by annexin-V staining (LNCaP cells [2]): increased; Bad, Bax, Bcl2 and Bcl-xL protein expression in Akt-siRNA treated cells [3]: augmented the increase in Bad and Bax and decrease in Bcl2 and Bcl-xL; effect on cell viability (PrEC cells; 24 h): minimal effect; effect on cell viability (PrEC cells; 48 h): minimal effect; cytotoxicity at 10 µM (CWR22Ru1 cells; 24 h): 12%; cytotoxicity at 10 µM (CWR22Ru1 cells; 48 h): 18%; cytotoxicity at 20 µM (CWR22Ru1 cells; 24 h): 26%; cytotoxicity at 20 µM (CWR22Ru1 cells; 48 h): 34%; cytotoxicity at 40 µM (CWR22Ru1 cells; 24 h): 38%; cytotoxicity at 40 µM (CWR22Ru1 cells; 48 h): 44%; cytotoxicity at 60 µM (CWR22Ru1 cells; 24 h): 52%; cytotoxicity at 60 µM (CWR22Ru1 cells; 48 h): 55%; cytotoxicity at 10 µM (PC-3 cells; 24 h): 7%; cytotoxicity at 10 µM (PC-3 cells; 48 h): 11%; cytotoxicity at 20 µM (PC-3 cells; 24 h): 18%; cytotoxicity at 20 µM (PC-3 cells; 48 h): 25%; cytotoxicity at 40 µM (PC-3 cells; 24 h): 24%; cytotoxicity at 40 µM (PC-3 cells; 48 h): 32%; cytotoxicity at 60 µM (PC-3 cells; 24 h): 33%; cytotoxicity at 60 µM (PC-3 cells; 48 h): 46%; protein expression of cdk2, 4 and 6 (cdk2, cdk4 and cdk6): dose-dependent decrease; cytotoxicity at 10 µM (LNCaP cells [4]; 24 h): 15%; cytotoxicity at 10 µM (LNCaP cells [4]; 48 h): 19%; cytotoxicity at 20 µM (LNCaP cells [4]; 24 h): 33%; cytotoxicity at 20 µM (LNCaP cells [4]; 48 h): 40%; cytotoxicity at 40 µM (LNCaP cells [4]; 24 h): 45%; cytotoxicity at 40 µM (LNCaP cells [4]; 48 h): 49%; cytotoxicity at 60 µM (LNCaP cells [4]; 24 h): 57%; cytotoxicity at 60 µM (LNCaP cells [4]; 48 h): 62%
